Test results: patent publication US20250282795A1, “EGFR Inhibitors in cancer treatment” (Celyn Therapeutics, Inc., priority 2022, published 2025)
Read-outs that look alike come from different tables or passages of the source.

Key:
[1] = DCM
[2] = Cellular growth inhibition assay (CellTiter-Glo), Ba/F3 (Empty vector); format: cell-based; details: mouse, Ba/F3 cells with empty vector; Ba/F3 (Empty vector) with 10 ng/ml rmIL-3, 3 days of incubation
How it was run: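 Ba/F3 cells carrying an empty vector were plated in 384-well black clear-bottom plates at 4000 cells per well in 45 μl RPMI containing FBS and 10 ng/ml rmIL-3. Compounds diluted from DMSO stocks were added as 5 μl of 10× solution, giving 0.2% DMSO. After 3 days, CellTiter-Glo was added and luminescence measured.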

Ba/F3 (D770_N771insSVD) = assay: Cellular growth inhibition assay (CellTiter-Glo), Ba/F3 (D770_N771insSVD); format: cell-based; details: Mus musculus, BaF3, 72 h; 3 days of incubation; read-out: Ba/F3 (D770_N771 insSVD) CC50
How it was run: (§1)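 Ba/F3 cells expressing the EGFR variants were seeded at 4000 cells/well in RPMI with FBS, with 10 ng/ml rhEGF added for the wild-type line, and treated with compound at 0.2% final DMSO. Viability was read by CellTiter-Glo luminescence after 3 days.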

EGFR (D770_N771insNPG) = EGFR (D770_N771insNPG) (Homo sapiens (Human), UniProt P00533, INS770NPG); assay: Potency of EGFR (D770_N771insNPG) enzymatic activity inhibition (ADP-Glo luminescence); format: biochemical; details: recombinant EGFR (D770_N771insNPG) 1.5 nM, Poly(Glu, Tyr) substrate, ATP, 1 h at rt
EGFR (D770_N771insNPG), sequence (P00533 other isoform, or with tags, fused parts or gaps del 1-694/ins NPG behind 770 limits assumed): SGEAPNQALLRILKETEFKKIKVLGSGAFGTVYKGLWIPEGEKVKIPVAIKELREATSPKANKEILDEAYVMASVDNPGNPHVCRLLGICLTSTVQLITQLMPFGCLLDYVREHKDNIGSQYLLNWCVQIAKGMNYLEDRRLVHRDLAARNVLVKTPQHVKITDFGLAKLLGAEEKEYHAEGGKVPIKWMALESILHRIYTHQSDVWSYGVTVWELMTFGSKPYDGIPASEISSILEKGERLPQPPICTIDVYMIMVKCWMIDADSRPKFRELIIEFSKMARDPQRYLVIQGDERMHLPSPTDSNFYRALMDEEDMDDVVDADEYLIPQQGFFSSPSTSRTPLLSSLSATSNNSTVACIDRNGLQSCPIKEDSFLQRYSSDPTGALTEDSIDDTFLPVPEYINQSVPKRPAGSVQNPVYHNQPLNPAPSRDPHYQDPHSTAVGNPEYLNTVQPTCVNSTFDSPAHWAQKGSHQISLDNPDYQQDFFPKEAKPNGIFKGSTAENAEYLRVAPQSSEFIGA
Protocol: Example B. Primary Assay Used to Determine Potency of EGFR (D770_N771insNPG) Enzymatic Activity Inhibition
Compounds activity was determined using recombinant EGFR (D770 N771insNPG) protein (SignalChem, #E10-132GG-10) and Poly(Glu, Tyr) substrate (Sigma-Aldrich, #P0275) in an in vitro enzymatic reaction. The enzymatic assay used to determine activity was a Luminescence assay using a Microplate Reader ClarioStar Plus. The enzymatic reaction was carried out in assay buffer (40 mM TRIS-HCl pH 7.4-7.6, 20 mM MgCl2, 2.5 mM MnCl2, 0.05 mM DTT, 0.1 mg/ml BSA). The compounds were dispensed on a 384 well Diamond Well Plate (Axigen, Cat #P-384-120SQ-C—S) using the Biomek FX liquid handling system at 80× solutions of compounds in DMSO. 2× Protein-Substrate mix (final concentration 1.5 nM of EGFR (D770_N771insNPG) and 50 ng/μl of Poly(Glu, Tyr)) was prepared in 1× Assay buffer and 4 µl of mixture per well was added into 384w white Reaction plate with NBS (Coming, Cat #4513). 4 μl of Poly(Glu, Tyr) substrate w/o EGFR in 1× buffer was used for negative control. Plates were centrifuged for 1 min at 200 g. Next step the Compounds were added to Reaction plate using Biomek station via following steps: 1 μl of 80× compounds (in DMSO) were mixed thoroughly with 39 μl of 2× 10 μM ATP in Assay Buffer, then 4 μl of this mixture was added to Reaction plate with 4 μl of Protein-Substrate mix. Plates were centrifuged for 1 min at 200 g and incubated for 1 h at rt. Next 4 μL of ADP-Glo reagent (Promega, ADP-Glo™ Kinase Assay, Cat #V9102) per well was added. Plates were incubated for 30 min at rt. Then 8 μL of Kinase detection reagent (Promega, ADP-Glo™ Kinase Assay, Cat #V9102) per well was added and the Luminescence was measured using Microplate Reader. The % inhibition was then used to calculate the EC50 values. The values of EC50 shown as a letters A-E, where: A<0.001 μM; 0.001 μM<B<0.005 μM; 0.005 μM<C<0.01 μM; 0.01<D<0.05 μM; E>0.05.

Ba/F3 (A767_dupASV) = assay: Cellular growth inhibition assay (CellTiter-Glo), Ba/F3 (A767_dupASV); format: cell-based; details: Mus musculus, BaF3, 72 h; 3 days of incubation; read-out: Ba/F3 (A767_dup ASV) CC50
How it was run: as §1

Ba/F3 (L858R + T790M) = assay: Cellular growth inhibition assay (CellTiter-Glo), Ba/F3 (L858R+T790M); format: cell-based; details: Mus musculus, BaF3, 72 h; 3 days of incubation
How it was run: as §1

Ba/F3 (H773_V774insSVD) = assay: Cellular growth inhibition assay (CellTiter-Glo), Ba/F3 (H773_V774insSVD); format: cell-based; details: Mus musculus, BaF3, 72 h; 3 days of incubation; read-out: Ba/F3 (H773_V774 insSVD) CC50
Ba/F3 (EGFRwt) = assay: Cellular growth inhibition assay (CellTiter-Glo), Ba/F3 (EGFRwt); format: cell-based; details: Mus musculus, BaF3, 72 h; Ba/F3 (Wild type) with 10 ng/ml rhEGF, 3 days of incubation
Protocol: Example E. Cellular Growth Inhibition Assay
Ba/F3(Empty vector) (Signosis), Ba/F3(Wild type) (Signosis), Ba/F3(L^858R+T790M) (Signosis), Ba/F3(A767_dupASV) (Signosis), Ba/F3(D770_N771insSVD) (Signosis), Ba/F3(H773_V774insNPH) (Signosis) were seeded at a density of 4000 cells per well in a CellBIND® 384-well Flat Clear Bottom Black Polystyrene Microplates (Coming, USA, Cat #3770) in 45 μl total volume of RPMI (PanEco, Cat #C330, Russia) with […] (HyClone, Cat #SV30160.03) and with 10 ng/ml rmIL-3 (RD systems, USA, Cat #403-ML-025) (for BaBF3(Empty vector)) and with 10 ng/ml rhEGF (ThermoFisher, USA, Cat #PHG0311L) (for BaCF3(Wild type)). 500× compounds solutions in DMSO (Sigma Cat #D2650) were prepared into Cmpnds plate (DiamondWell Plate, Axigen, Cat #P-384-120SQ-C—S) and DMSO only control was included. 1.l of 500× compounds (Cmpnds plate) was added to 49 µl of culture medium into Dilution plate (Diamond Well Plate, Axigen, Cat #P-384-120SQ-C—S), mixed and then 5 μl of 10× compounds solutions were transferred to cells followed by centrifugation at 100 g for 1 min. Final DMSO concentration was 0.2% o. After 3 days of incubation 10.l of CellTiter-Glo (Promega, CAT #G7572) were added to the cells, plate was centrifuged at 100 g for 1 min and luminescence signal was measured using Microplate Reader (CLARIOStar).

EGFR (WT) = EGFR (WT) (Homo sapiens (Human), UniProt P00533); assay: Potency of EGFR enzymatic activity inhibition (WT) (ADP-Glo luminescence); format: biochemical; details: recombinant EGFR (WT) 4 nM, Poly(Glu, Tyr) substrate, ATP, 1 h at rt
EGFR (WT), sequence (P00533 25-1210): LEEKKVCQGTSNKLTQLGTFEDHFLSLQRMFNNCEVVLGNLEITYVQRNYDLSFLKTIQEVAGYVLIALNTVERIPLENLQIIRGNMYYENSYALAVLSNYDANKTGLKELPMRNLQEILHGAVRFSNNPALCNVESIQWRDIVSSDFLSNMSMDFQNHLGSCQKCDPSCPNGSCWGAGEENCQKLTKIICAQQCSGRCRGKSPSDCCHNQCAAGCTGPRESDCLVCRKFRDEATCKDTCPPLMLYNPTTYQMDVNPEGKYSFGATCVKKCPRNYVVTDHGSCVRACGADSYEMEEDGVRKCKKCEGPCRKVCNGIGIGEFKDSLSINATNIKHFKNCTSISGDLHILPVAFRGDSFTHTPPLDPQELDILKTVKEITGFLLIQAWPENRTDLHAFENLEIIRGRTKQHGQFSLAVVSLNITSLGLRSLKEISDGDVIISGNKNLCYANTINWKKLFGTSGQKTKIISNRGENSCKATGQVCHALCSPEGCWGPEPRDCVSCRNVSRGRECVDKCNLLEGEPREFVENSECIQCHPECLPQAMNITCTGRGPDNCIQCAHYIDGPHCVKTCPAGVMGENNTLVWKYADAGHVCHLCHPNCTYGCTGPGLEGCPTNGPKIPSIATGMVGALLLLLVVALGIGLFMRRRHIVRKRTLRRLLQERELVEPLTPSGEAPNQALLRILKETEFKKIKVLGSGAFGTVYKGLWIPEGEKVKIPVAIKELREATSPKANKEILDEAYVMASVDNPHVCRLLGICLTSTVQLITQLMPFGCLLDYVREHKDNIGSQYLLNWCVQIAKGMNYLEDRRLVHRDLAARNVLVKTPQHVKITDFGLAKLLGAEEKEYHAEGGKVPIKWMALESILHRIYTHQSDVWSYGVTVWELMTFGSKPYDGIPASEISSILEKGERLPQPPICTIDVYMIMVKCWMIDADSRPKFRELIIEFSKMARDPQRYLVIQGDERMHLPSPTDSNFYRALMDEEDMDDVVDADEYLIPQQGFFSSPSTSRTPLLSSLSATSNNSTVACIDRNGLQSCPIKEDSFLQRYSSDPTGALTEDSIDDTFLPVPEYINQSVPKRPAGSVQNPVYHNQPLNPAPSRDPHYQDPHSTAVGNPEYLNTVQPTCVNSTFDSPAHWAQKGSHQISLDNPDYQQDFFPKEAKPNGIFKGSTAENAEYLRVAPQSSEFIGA
Protocol: Example D. Primary Assay Used to Determine Potency of EGFR enzymatic activity Inhibition (WT)
Compound activity was determined using recombinant EGFR protein (SignalChem, #E10-112G-10) and Poly(Glu, Tyr) substrate (Sigma-Aldrich, #P0275) in an in vitro enzymatic reaction. The enzymatic assay used to determine activity was a Luminescence assay using a Microplate Reader ClarioStar Plus. The enzymatic reaction was carried out in assay buffer (40 mM TRIS-HCl pH 7.4-7.6, 20 mM MgCl2, 2.5 mM MnCl2, 0.05 mM DTT, 0.1 mg/ml BSA). The compounds were dispensed on a 384 well Diamond Well Plate (Axigen, Cat #P-384-120SQ-C—S) using the Biomek FX liquid handling system at 80× solutions of compounds in DMSO. 2× Protein-Substrate mix (final concentration 4 nM of EGFR and 50 ng/μl of Poly(Glu, Tyr)) was prepared in 1× Assay buffer and 4 μl of mixture per well was added into 384w white Reaction plate with NBS (Coming, Cat #4513). 4 μl of Poly(Glu, Tyr) substrate w/o EGFR in 1× buffer was used for negative control. Plates were centrifuged for 1 min at 200 g. Next step the Compounds were added to Reaction plate using Biomek station via following steps: 1 μl of 80× compounds (in DMSO) were mixed thoroughly with 39 μl of 2× 10 μM ATP in Assay Buffer, then 4 μl of this mixture was added to Reaction plate with 4 μl of Protein-Substrate mix. Plates were centrifuged for 1 min at 200 g and incubated for 1 h at rt. Next 4 μL of ADP-Glo reagent (Promega, ADP-Glo™ Kinase Assay, Cat #V9102) per well was added. Plates were incubated for 30 min at rt. Then 8 μL of Kinase detection reagent (Promega, ADP-Glo™ Kinase Assay, Cat #V9102) per well was added and the Luminescence was measured using Microplate Reader. The % inhibition was then used to calculate the EC50 values. The results for certain compounds are presented in the Table D. The values of EC50 shown as a letters A-E, where: A<0.001 μM; 0.001 μM<B<0.005 μM; 0.005 μM<C<

[3] = rcm bond, 14-membered ring, Grubbs II (12 mol%), 10.0 mM, 50.0 °C

## COc1c(F)cccc1Nc1c2[nH]c3c1C(=O)NCC3CC=CCCOc1cnccc1-2 (stereo not drawn)
[1]; from C=CCCOc1cnccc1-c1[nH]c2c(c1Nc1cccc(F)c1OC)C(=O)NCC2CC=C, rcm bond, 12-membered ring, Grubbs II (15 mol%), 10.0 mM, 50.0 °C
  ring closure, isolated yield: 71%

## 19-[(3-Fluoro-2-methoxyphenyl)amino]-7,8,10,11,12,12a,13,14-octahydro-6H-7,9-methano-16,18-methenodipyrido[3,4-b:4′,3′-f][1,5,11]oxadiazacyclotetradecin-15(17H)-one
[1]; amine bond, 14-membered ring, STAB/DIEA, 190.0 mM, 25.0 °C
  ring closure, isolated yield: 36%

## 29-(3-Fluoro-2-methoxyanilino)-18,21-dioxa-1,6,10,15,24-pentaazapentacyclo[22.2.2.1^8,110^4,9.0^12,17]nonacosa-8,11(29),12(17),13,15-pentaene-2,7-dione
Amide bond, 18-membered ring, EDCI, DMF, 43.0 mM, 25.0 °C
  ring closure, yield after HPLC: 16%

## COc1c(F)cccc1Nc1c2[nH]c3c1C(=O)NCC3C/C=C\COCCOc1cnccc1-2 (stereo not drawn) [Compound 104, (13Z)-23-[(3-fluoro-2-methoxyphenyl)amino]-8,11-dioxa-5,18,22-triazatetracyclo[18.2.10^2,7.0^16,21]tricosa-1(23),2,4,6,13,20-hexaen-19-one]
[2]
  CC50 at 3 days: > 10 µM
Ba/F3 (D770_N771insSVD)
  CC50: 0.01 to 0.1 µM
EGFR (D770_N771insNPG)
  EC50: ≤ 0.001 µM
Ba/F3 (A767_dupASV)
  CC50: 0.0001 to 0.001 µM
Ba/F3 (L858R + T790M)
  CC50: 0.1 to 1 µM
Ba/F3 (H773_V774insSVD)
  CC50: 0.1 to 1 µM
Ba/F3 (EGFRwt)
  CC50: 0.1 to 1 µM
EGFR (WT)
  EC50: 0.001 to 0.005 µM

## COc1c(F)cccc1Nc1c2[nH]c3c1C(=O)NC[C@H]3CCCCOCCOc1cnccc1-2 [Compound 114, (16R)-23-[(3-Fluoro-2-methoxyphenyl)amino]-8,11-dioxa-5,18,22-triazatetracyclo[18.2.1.0^2,7.0^16,21]tricosa-1(23),2,4,6,20-pentaen-19-one]
[2]
  CC50 at 3 days: > 10 µM
Ba/F3 (D770_N771insSVD)
  CC50: 0.01 to 0.1 µM
EGFR (D770_N771insNPG)
  EC50: 0.001 to 0.005 µM
Ba/F3 (A767_dupASV)
  CC50: 0.0001 to 0.001 µM
Ba/F3 (L858R + T790M)
  CC50: 0.1 to 1 µM
Ba/F3 (H773_V774insSVD)
  CC50: 0.1 to 1 µM
Ba/F3 (EGFRwt)
  CC50: 0.1 to 1 µM
EGFR (WT)
  EC50: 0.001 to 0.005 µM

## COc1c(F)cccc1Nc1c2[nH]c3c1C(=O)NC[C@@H]3CCCCOCCOc1cnccc1-2 [Compound 115]
[2]
  CC50 at 3 days: > 10 µM
Ba/F3 (D770_N771insSVD)
  CC50: 0.01 to 0.1 µM
EGFR (D770_N771insNPG)
  EC50: 0.001 to 0.005 µM
Ba/F3 (A767_dupASV)
  CC50: 0.0001 to 0.001 µM
Ba/F3 (L858R + T790M)
  CC50: 0.1 to 1 µM
Ba/F3 (H773_V774insSVD)
  CC50: 0.01 to 0.1 µM
Ba/F3 (EGFRwt)
  CC50: 0.1 to 1 µM
EGFR (WT)
  EC50: 0.001 to 0.005 µM

## (13E)-23-[(3-Fluoro-2-methoxyphenyl)amino]-8,11-dioxa-5,18,22-tniazatetracyclo[18.2.1.0^2,7.0^16′2]tricosa-1(23),2,4,6,13,20-hexaen-19-one
[1]; [3]
  ring closure, isolated yield: 16%

## (13Z)-23-[(3-fluoro-2-methoxyphenyl)amino]-8,11-dioxa-5,18,22-triazatetracyclo[18.2.10^2,7.0^16,21]tricosa-1(23),2,4,6,13,20-hexaen-19-one
[1]; [3]
  ring closure, isolated yield: 4%

## (19E)-28-[(3-Fluoro-2-methoxyphenyl)amino]-3,22-dioxa-6,11,15-triazapentacyclo[21.3.1^10,13.0^4,9.0^12,17]octacosa-1(27),4,6,8,10(28),12,19,23,25-nonaen-14-one
Rcm bond, 16-membered ring, Hoveyda-Grubbs II (10 mol%), DCM, 3.6 mM
  ring closure, yield after HPLC: 20%
